From US8450374B2, “Pan-antagonists for the androgen receptor and androgen receptor mutants associated with anti-androgen withdrawal” (priority 2009, dated 2013)
Where a chain is given by its changes, count along the chain named.

Assays:
[1] = 25 mg/kg/day IP; PLM6 death at 5 days of treatment
Source text: (§1) Prostates were removed from 3 day and 5 day treatment groups, sectioned and stained by H&E and TUNEL.

prostate tissues = assay: Prostate apoptosis by TUNEL after short-term IP treatment (PLM6, bicalutamide); assay type: in vivo, Male C57BI/6 mice; settings: 25 mg/kg/day IP, mean ± SE
Experimental: FIG. 6. […] Single 20× magnification fields from each of four lobes of mouse prostate glands were counted in each mouse. […] Data are expressed as means±SE. Statistics were determined using two-tailed, paired t-tests assuming data from each lobe was independent.
as §1
PLM6-induced glandular apoptosis was 19.9±2.8 cells per 20× field on day 3 (P=0.0064) that reached 24.63±3 cells per 20× field on day 5 (P=2.59×10^−4) (FIG. 7). Prostates from treated and control mice were isolated, fixed sectioned and stained TUNEL (BrdU). Sections were then evaluated by visible light microscopy and counting.

AR wt [2] = target: T1, AR wt (Homo sapiens, UniProt P10275); assay: Transcription assay (ARE-luciferase reporter) in CV-1 cells, wild-type AR; assay type: cell-based; set-up: expressed in transfected cells; host or cells: CV-1
T1 sequence (P10275 1-920): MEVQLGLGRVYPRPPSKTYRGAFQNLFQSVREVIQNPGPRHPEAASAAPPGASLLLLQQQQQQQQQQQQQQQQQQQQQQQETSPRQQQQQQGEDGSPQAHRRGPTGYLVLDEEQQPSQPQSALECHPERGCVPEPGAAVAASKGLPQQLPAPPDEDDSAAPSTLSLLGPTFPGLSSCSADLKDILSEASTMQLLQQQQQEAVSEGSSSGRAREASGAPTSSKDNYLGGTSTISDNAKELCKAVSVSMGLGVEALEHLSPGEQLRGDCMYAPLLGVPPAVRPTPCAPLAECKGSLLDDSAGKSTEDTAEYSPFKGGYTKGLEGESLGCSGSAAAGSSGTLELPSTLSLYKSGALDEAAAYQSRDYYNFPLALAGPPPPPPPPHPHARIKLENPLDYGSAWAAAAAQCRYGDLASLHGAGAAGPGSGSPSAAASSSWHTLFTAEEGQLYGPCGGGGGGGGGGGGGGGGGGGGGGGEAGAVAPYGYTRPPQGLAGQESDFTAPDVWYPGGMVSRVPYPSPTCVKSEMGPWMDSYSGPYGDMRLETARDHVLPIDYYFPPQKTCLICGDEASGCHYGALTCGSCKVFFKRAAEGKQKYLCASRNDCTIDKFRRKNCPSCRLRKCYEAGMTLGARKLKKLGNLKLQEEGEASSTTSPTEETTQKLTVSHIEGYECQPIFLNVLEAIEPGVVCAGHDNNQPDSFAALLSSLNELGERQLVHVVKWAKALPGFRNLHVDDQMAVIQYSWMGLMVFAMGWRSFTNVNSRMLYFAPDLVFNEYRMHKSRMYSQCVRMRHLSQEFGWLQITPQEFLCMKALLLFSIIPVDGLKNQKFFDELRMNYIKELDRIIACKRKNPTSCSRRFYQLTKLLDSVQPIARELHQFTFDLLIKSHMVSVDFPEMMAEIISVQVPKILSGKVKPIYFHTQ
Experimental: (§2) Twenty-four hours prior to transfection, CV-1 cells were seeded at a density of 45,000 cells per well in 24-well cell culture plates and grown in phenol red free Dulbecco's Modified Eagle Medium (DMEM) supplemented with 10% cosmic calf serum (COS). ARE-luciferase reporter and Renilla-Luc as the internal standard and a prokaryotic expression vector encoding the wild-type androgen receptor or mutant androgen receptor were transfected with Lipofectamine (Invitrogen) following manufacturer's protocol. Five hours after transfection, media was added containing the appropriate concentrations of ligands. The cells were allowed to incubate for 38 hours before harvesting by passive lysis buffer. Cell extracts were immediately assayed using the Dual Luciferase Assay (Promega) with a Perkin-Elmer Microbeta Luminometer. […] Dose-response data was analyzed by nonlinear regression analysis using GraphPad Prism.

AR T877A [3] = target: T2, AR T877A (Homo sapiens, UniProt P10275, T878A); assay: Transcription assay (ARE-luciferase reporter) in CV-1 cells, AR T877A; assay type: cell-based; set-up: expressed in transfected cells; host or cells: CV-1
T2 sequence (P10275 1-920 T878A): T1 sequence (P10275 1-920) with T878A
Experimental: as §2

AR wt [4] = target: T1, AR wt; assay: Competitive binding assay, [3H]DHT, transfected COS-7 cells, wild-type AR; set-up: expressed in transfected cells; host or cells: COS-7; settings: 8 nM [3H]-DHT, read-out: Binding affinity (Ki), AR wt
Experimental: (§3) Twenty-four hours prior to transfection, COS-7 cells were seeded at a density of 70,000 cells per well in 24-well cell culture plates and grown in phenol red free Dulbecco's Modified Eagle Medium (DMEM) supplement with 10% cosmic calf serum (CCS). The cells were transfected with a prokaryotic expression vector encoding the wild-type androgen receptor or mutant androgen receptor using Lipofectamine (Invitrogen) following manufacturer's protocol. […] Cells were washed with PBS and harvested in 2% SDS, 10% glycerol, and 10 mM Tris, pH 6.8, and radioactivity determined by scintillation counting.

AR T877A [5] = target: T2, AR T877A; assay: Competitive binding assay, [3H]DHT, transfected COS-7 cells, AR T877A; set-up: expressed in transfected cells; host or cells: COS-7; settings: 14 nM [3H]-DHT, read-out: Binding affinity (Ki), AR T877A
Experimental: as §3

AR W741C = target: T3, AR W741C (Homo sapiens, UniProt P10275, W742C); assay: Competitive binding assay, [3H]DHT, transfected COS-7 cells, AR W741C; set-up: expressed in transfected cells; host or cells: COS-7; settings: 75 nM [3H]-DHT, read-out: Binding affinity (Ki), AR W741C
T3 sequence (P10275 1-920 W742C): T1 sequence (P10275 1-920) with W742C
Experimental: as §3

Row | SMILES | Deaths [1] | Glandular apoptosis, apoptotic cells (prostate tissues; day 3, TUNEL) | Glandular apoptosis, apoptotic cells (prostate tissues; day 5, TUNEL) | IC50 (AR wt [2]) | Antagonist efficacy (RLU value at IC50), AR wt (AR wt [2]; in competition with 3 nM DHT, normalized to 10 nM DHT in hAR(wt)) | IC50 (AR T877A [3]) | Antagonist efficacy (RLU value at IC50), AR T877A (AR T877A [3]; in competition with 10 nM DHT) | Ki (AR wt [4]) | Ki (AR T877A [5]) | Ki (AR W741C)
1 | CC(O)(CS(=O)(=O)c1ccc(F)cc1)C(=O)Nc1ccc(C#N)c(C(F)(F)F)c1 (stereo not shown) [Bicalutamide, bicalutamide] | two | 21.04±4.7 cells per 20× field | 50.83±8.2 cells per 20× field | – | – | – | – | – | – | –
2 | CN(C)CCCOc1ccccc1Cc1ccccc1S(=O)(=O)CC(C)(O)C(=O)Nc1ccc(C#N)c(C(F)(F)F)c1 (stereo not shown) [PAN12] | – | – | – | 2.4 µM | (59%) | 4.1 ± 0.7 µM | (53% ± 5.6%) | 5.8 µM | 2.6 µM | 16 µM
